Assay results taken from publication doi:10.1101/2021.07.05.449867v2 (biorxiv, 2021).

Tested on: ZRK
Assay: NAD
Type: biochemical, Zygosaccharomyces rouxii
Settings: 2000 uM NADPH/NADH; enzyme 1 ug/ml; optimal buffer

SMILES: CC(=O)c1cc(C(F)(F)F)cc(C(F)(F)F)c1 [Aprepitant K-INT, 1-(3,5-bis-trifluoromethyl-phenyl)-ethanone]
- Km: 186 µM

SMILES: COC(=O)CC(=O)Cc1cc(F)c(F)cc1F [Sitagliptin K-INT, 3-oxo-4-(2,4,5-trifluoro-phenyl)-butyric acid methyl ester]
- Km: 346 µM
